Laboratory results from BindingDB's records for doi:10.1016/s0960-894x(00)00080-9 (Granada, 2000).
pIC50: −log10 of the molar value.

Each compound was assayed against Choline kinase (Saccharomyces cerevisiae) (UniProt P20485) (assay: Compound was tested […] for inhibition against purified choline kinase obtained from yeast).
Chain of Choline kinase (Saccharomyces cerevisiae) (P20485 whole entry, looked up): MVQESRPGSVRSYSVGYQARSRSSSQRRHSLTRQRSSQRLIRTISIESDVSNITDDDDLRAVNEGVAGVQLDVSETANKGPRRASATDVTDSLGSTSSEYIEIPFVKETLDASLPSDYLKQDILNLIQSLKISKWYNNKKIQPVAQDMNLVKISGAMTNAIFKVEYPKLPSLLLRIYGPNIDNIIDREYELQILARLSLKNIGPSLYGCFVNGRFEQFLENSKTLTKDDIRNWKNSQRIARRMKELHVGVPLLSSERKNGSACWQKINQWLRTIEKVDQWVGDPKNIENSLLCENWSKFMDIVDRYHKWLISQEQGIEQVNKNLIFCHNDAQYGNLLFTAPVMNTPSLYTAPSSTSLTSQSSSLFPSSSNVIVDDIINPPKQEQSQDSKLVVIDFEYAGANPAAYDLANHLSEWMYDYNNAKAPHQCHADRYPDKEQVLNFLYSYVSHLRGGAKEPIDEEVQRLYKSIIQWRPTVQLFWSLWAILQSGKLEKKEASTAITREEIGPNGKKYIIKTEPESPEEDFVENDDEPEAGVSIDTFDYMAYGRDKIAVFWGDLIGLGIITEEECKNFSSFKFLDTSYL
A pIC50 of 5.02 was found for `c1cc(Cn2ccc(=[N+]3CCCCC3)cc2)ccc1CCc1ccc(Cn2ccc(=[N+]3CCCCC3)cc2)cc1` [1,2-di[4-(4-hexahydro-1-pyridinyl-1-pyridiniumylmethyl)phenyl]ethane dibromide] in this work. A pIC50 of 4.00 was found for `Cc1cc[n+](Cc2ccc(CCc3ccc(C[n+]4ccc(C)cc4)cc3)cc2)cc1` [1,2-di[4-(4-methyl-1-pyridiniumylmethyl)phenyl]ethane dibromide] in this work. A pIC50 of 4.70 was found for `c1cc(Cn2ccc(=[N+]3CCCC3)cc2)ccc1CCc1ccc(Cn2ccc(=[N+]3CCCC3)cc2)cc1` [1,2-di[4-(4-tetrahydro-1H-1-pyrrolyl-1-pyridiniumylmethyl)phenyl]ethane dibromide] in this work. A pIC50 of 4.82 was found for `c1cc(Cn2ccc(=[N+]3CCCCCC3)cc2)ccc1CCc1ccc(Cn2ccc(=[N+]3CCCCCC3)cc2)cc1` [1,2-di{4-[4-(1-azepanyl)-1-pyridiniumylmethyl]phenyl}ethane dibromide] in this work. A pIC50 of 4.64 was found for `N=c1ccn(Cc2ccc(CCc3ccc(Cn4ccc(=N)cc4)cc3)cc2)cc1` [1-{4-[4-(4-amino-1-pyridiniumylmethyl)phenethyl]benzyl}-4-pyridiniumamine dibromide] in this work. A pIC50 of 3.86 was found for `O=C(O)c1cc[n+](Cc2ccc(CCc3ccc(C[n+]4ccc(C(=O)O)cc4)cc3)cc2)cc1` [1-{4-[4-(4-carboxy-1-pyridiniumylmethyl)phenethyl]benzyl}-4-pyridiniumcarboxylic acid dibromide] in this work. A pIC50 of under 3.00 was found for `N#Cc1cc[n+](Cc2ccc(CCc3ccc(C[n+]4ccc(C#N)cc4)cc3)cc2)cc1` [1-{4-[4-(4-cyano-1-pyridiniumylmethyl)phenethyl]benzyl}-4-pyridiniumcarbonitrile dibromide] in this work. A pIC50 of 4.00 was found for `OCc1cc[n+](Cc2ccc(CCc3ccc(C[n+]4ccc(CO)cc4)cc3)cc2)cc1` [1-{4-[4-(4-hydroxymethyl-1-pyridiniumylmethyl)phenethyl]benzyl}-4-pyridiniumylmethanol dibromide] in this work. A pIC50 of 4.77 was found for `C=CC[N+](CC=C)=c1ccn(Cc2ccc(CCc3ccc(Cn4ccc(=[N+](CC=C)CC=C)cc4)cc3)cc2)cc1` [4N,4N-diallyl-1-{4-[4-(4-diallylamino-1-pyridiniumylmethyl)phenethyl]benzyl}-4-pyridiniumamine dibromide] in this work. A pIC50 of 4.77 was found for `C[N+](C)=c1ccn(Cc2ccc(CCc3ccc(Cn4ccc(=[N+](C)C)cc4)cc3)cc2)cc1` [4N,4N-dimethyl-1-{4-[4-(4-dimethylamino-1-pyridiniumylmethyl)phenethyl]benzyl}-4-pyridiniumamine dibromide] in this work.
